Laboratory results taken from patent US20250213564A1, “COMPOSITIONS AND METHODS FOR THE TREATMENT OF ALZHEIMER'S DISEASE AND OTHER NEUROGENERATIVE DISEASE” (priority 2022, published 2025).
Where a name gives a salt, the structure may show the parent alone.

Tests used:
[1] = test system: Ctrl and APP/PS1 (AD) mice; experiment: Marble burying (MB); type: in vivo; details: for percentage of marbles buried: 2-month-old female AD mice
Procedure: The MB assay was conducted in a clean cage (10.5 in×5.5 in) containing soft pliable Beta Chip bedding (Northeastern Products Corp, Warrensburg, NY). The cage contained 16 marbles set up in 4 rows of 4 across. Mice were given 20 minutes to explore and bury. At the end of the assay, the percentage of marbles buried was calculated.

[2] = test system: Ctrl and APP/PS1 (AD) mice; experiment: Contextual fear conditioning (CFC), 3-shock; type: in vivo; details: for memory retrieval: 2-month-old male AD mice; for learning (freezing during training): male AD mice
Procedure: A 3-shock CFC paradigm was administered as previously described (Denny et al., 2014; Drew et al., 2010). Fear conditioning was conducted in chambers obtained from Coulborn Instruments (Allentown, PA) with internal dimensions of approximately 20 cm wide×16 cm deep×20.5 cm high. The chambers had metal walls on each side, clear plastic front and back walls and ceilings, and stainless-steel bars on the floor. A house light (CM1820 bulb, 28 V, 100 mA) mounted directly above the chamber provided illumination. Each chamber was located inside a larger, insulated, plastic cabinet that provided protection from outside light and noise. Each cabinet contained a ventilation fan that was operated during the sessions. A paper towel dabbed with lemon solution was placed underneath the chamber floor. Mice were held outside the experimental room in their home cages prior to testing and transported to the conditioning apparatus individually in standard mouse cages. Chambers were cleaned with 70% EtOH between each set of mice. Training sessions were conducted using a 3-shock protocol. Mice were placed into the conditioning chamber and received shocks at 180 s, 240 s, and 300 s (2 s duration each, 0.75 mA). Fifteen seconds after the last shock, mice were removed from the chamber. Overall, the training session lasted 317 s. […] All sessions were scored for freezing using FreezeFrame4 (Actimetrics, Wilmette, IL).

[3] = test system: Ctrl and APP/PS1 (AD) mice; details: male Ctrl mice; single injection; compared to Ctrl mice
Procedure: The APP/PS1 (AD) mice were previously bred with the ArcCreER^T2×enhanced yellow fluorescent protein (EYFP) mice (Denny et al., 2014; Perusini et al., 2017). Female and male mice were used in all experiments. The Ctrl mice were APP/PS1 (−)×ArcCreER^T2 (+) or (−)×EYFP (+/−), and the AD mice were APP/PS1 (+)×ArcCreER^T2 (+) or (−)×EYFP (+/−). Mice were housed 4-5 per cage in a 12-h (06:00-18:00) light-dark colony room at 22° C. Mice had ad libitum access to food and water.
All drugs were resuspended in saline and made fresh for each experiment. […] These dosages were chosen based upon previous studies (Brachman et al., 2016; Chen et al., 2020a). […] All drugs were prepared in physiological saline and administered intraperitoneally (i.p.) in volumes of 0.1 cc per 10 mg body weight.
Testing was performed as previously described (Brachman et al., 2016; Chen et al., 2020a). Briefly, the testing apparatus consisted of a plastic box (50×50×20 cm). The floor was covered with approximately 2 cm of wooden bedding and the arena was brightly lit (approximately 1000 lux). […] The latency of the mice to begin eating was recorded. Immediately after the latency was recorded, the food pellet was removed from the arena. The mice were then placed into their home cage and the amount of food consumed in 5 min was measured (home cage consumption), followed by an assessment of post-restriction weight. […]

[4] = mouse, in vivo
[5] = biological target: hERG (human Ether-a-go-go Related Gene) channels (Homo sapiens, UniProt Q12809); details: cited from earlier work
Sequence of hERG (human Ether-a-go-go Related Gene) channels (Q12809 whole entry): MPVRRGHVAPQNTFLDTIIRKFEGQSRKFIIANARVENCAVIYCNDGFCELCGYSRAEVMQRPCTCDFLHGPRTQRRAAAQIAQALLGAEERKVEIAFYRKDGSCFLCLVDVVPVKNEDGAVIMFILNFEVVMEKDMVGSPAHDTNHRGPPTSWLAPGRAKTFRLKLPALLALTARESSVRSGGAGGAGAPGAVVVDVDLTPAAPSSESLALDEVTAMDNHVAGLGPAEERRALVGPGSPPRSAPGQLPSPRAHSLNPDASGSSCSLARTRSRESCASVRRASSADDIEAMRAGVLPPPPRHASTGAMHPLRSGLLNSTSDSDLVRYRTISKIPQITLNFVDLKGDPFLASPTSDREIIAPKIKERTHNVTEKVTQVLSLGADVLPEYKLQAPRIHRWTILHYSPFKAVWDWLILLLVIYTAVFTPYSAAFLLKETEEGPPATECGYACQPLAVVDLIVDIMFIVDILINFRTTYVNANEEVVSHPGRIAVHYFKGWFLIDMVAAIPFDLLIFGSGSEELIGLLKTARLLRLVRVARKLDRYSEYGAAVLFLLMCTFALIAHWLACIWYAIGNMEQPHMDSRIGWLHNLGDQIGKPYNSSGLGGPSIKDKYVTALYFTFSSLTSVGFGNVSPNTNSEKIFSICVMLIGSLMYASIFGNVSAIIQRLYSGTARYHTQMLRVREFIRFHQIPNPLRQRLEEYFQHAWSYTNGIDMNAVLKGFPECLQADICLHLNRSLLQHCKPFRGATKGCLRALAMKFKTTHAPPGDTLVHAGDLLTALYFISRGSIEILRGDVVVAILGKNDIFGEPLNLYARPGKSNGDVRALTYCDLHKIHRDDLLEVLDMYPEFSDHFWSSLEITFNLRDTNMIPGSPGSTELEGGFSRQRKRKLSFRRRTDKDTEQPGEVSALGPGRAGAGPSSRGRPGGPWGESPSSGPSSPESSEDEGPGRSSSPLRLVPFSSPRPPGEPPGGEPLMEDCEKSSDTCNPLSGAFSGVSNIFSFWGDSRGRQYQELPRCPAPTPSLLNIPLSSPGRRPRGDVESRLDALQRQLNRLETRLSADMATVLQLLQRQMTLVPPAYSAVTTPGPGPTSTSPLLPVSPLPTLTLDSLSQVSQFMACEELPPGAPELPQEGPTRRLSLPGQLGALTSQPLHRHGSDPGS

[6] = test system: 5xFAD mouse model of Alzheimer's disease (AD); details: Giannoni et al., 2013; cited from earlier work

COCCCN1CCC(NC(=O)c2cc(Cl)c(N)c3c2OCC3)CC1 [prucalopride, 4-amino-5-chloro-2,3-dihydro-N-[1-3-methoxypropyl)-4-piperidinyl]-7-benzofuran carboxamide monohydrochloride]
percentage of marbles buried ([1]; 7×prucalopride 1.5 mg/kg): decreased
percentage of marbles buried ([1]; 7×prucalopride 3 mg/kg): decreased
memory retrieval ([2]; 7×prucalopride 3 mg/kg): improved
learning (freezing during training) ([2]; single injection): Neither (R,S)-ketamine nor prucalopride, whether administered solely or jointly, affected learning
latency to feed in home cage [3]: more quickly
weight and weight loss [4]: neither weight nor weight loss was impacted
affinity for the hERG channels [5]: no affinity

CNC1(c2ccccc2Cl)CCCCC1=O (racemic) [(R,S)-ketamine, (RS)-2-(2-chlorophenyl)-2-(methylamino)cyclohexanone]
perseverative behavior (number of marbles buried) ([1]; female Ctrl mice, prophylactic administration, FIG. 3): decreased
memory retrieval ([2]; 1×(R,S)-ketamine 30 mg/kg): improved
learning (freezing during training) ([2]; single injection): Neither (R,S)-ketamine nor prucalopride, whether administered solely or jointly, affected learning
freezing during training ([2]; male Ctrl mice, single injection, compared to other groups): increased

CCCCN1CCC(CCC(=O)c2cc(Cl)c(N)cc2OC)CC1.Cl [RS-67,333, 1-(4-amino-5-chloro-2-methoxyphenyl)-3-[1(n-butyl)-4-piperidinyl]-1-propanone HCl]
behavioral deficits [6]: effective in improving
hippocampal astrogliosis and microgliosis [6]: decreasing
number of amyloid plaques and level of amyloid beta (Aβ) species [6]: decreasing
